Assay results published in patent publication US11155580B2, “Modified proteins and methods of use thereof” (YALE UNIVERSITY, priority 2013, dated 2021).
Entries after “also recorded” stand apart in the source; their conditions may differ. Where no end group is shown, it is not given here. Rhod = not defined here

Assays:
[1] = test system: HeLa cells transfected with GR-GFP; test: GR-GFP translocation assay (cytosolic access of Dex-labeled molecules); assay type: cell-based; conditions: for effect of bafilomycin on TR: 200 nM bafilomycin pretreatment 1 h; for effect of bafilomycin on TR / effect of EIPA on TR / effect of dynasore on TR / effect of methyl-β-cyclodextrin (MβCD) on TR: then 1 μM; for translocation ratio (TR) / effect of EIPA on TR / effect of dynasore on TR / effect of methyl-β-cyclodextrin (MβCD) on TR: 30 min; for translocation ratio (TR): HeLa cells expressing GR-GFP; for effect of EIPA on TR: 50 μM EIPA pretreatment 30 min; for effect of dynasore on TR: 80 μM dynasore pretreatment 30 min; for effect of methyl-β-cyclodextrin (MβCD) on TR: 5 mM MβCD pretreatment 30 min
Experimental: HeLa cells transfected with pK7-GR-GFP were plated in Matrical plates as described above. To label nuclei, the media was replaced with HKR buffer containing 300 nM Hoescht and the cells incubated for 30 min at 37° C.
Cells were then analyzed as described above.
HeLa cells transfected with pK7-GR-GFP for 24-36 hr were plated (10^4/well in 200 μL) the day prior to experiments in 96 well glass bottom plates (Matrical). The media was replaced with HKR buffer containing 300 nM Hoescht and the cells incubated for 30 min at 37° C. […] The cells were incubated for a further 30 min at 37° C. before epifluorescence imaging using a Zeiss Axiovert 200M microscope fitted with a mRM digital camera, a 63×1.3NA PlanApo objective and an EXFO-Excite illumination source.
Uptake was allowed to proceed for an additional 30 min at 37° C. before analysis by epifluorescence images as described elsewhere herein.
The image analysis algorithm used by CellProfiler is customizable and contained within a ‘Pipeline’ that describes a series of image manipulation and evaluation steps, such as reading the image, adjusting the intensity, and identifying objects. Each step has several options. […] Using the image of Hoescht fluorescence and Otsu's method of automatic thresholding, nuclei were identified and segmented using 3 class thresholding. The middle class was assigned to background. Closely approximated objects were separated using ‘Laplacian of Gaussian’ modeling, and touching nuclei were divided using the ‘shape’ option. Nuclear regions were expanded by 2 μm to generate an enlarged region. The nuclear region was subtracted from enlarged region to generate a ring surrounding the nucleus (surround). […] The ratio of the median intensities of the nuclear and surrounding region of the GFP or mCherry (as appropriate) image were collected for every cell examined. Those cells falling below a threshold of intensity (10% of the maximum intensity of the image) were discarded as ‘untransfected’. Typically, 20-60 transfected cells from 15-30 images were examined for each experimental condition.

[2] = test system: HeLa cells transfected with pGR-mCherry and Rab5-GFP or Rab5Q79L-GFP; test: GR-mCherry translocation in cells expressing Rab5-GFP or Rab5Q79L-GFP; assay type: cell-based; conditions: for effect of Rab5Q79L on ability to reach the cytoplasm / TR: overexpression of Rab5Q79L-GFP
Experimental: Cotransfected cells expressing Rab-GFP fusions and pGR-mCherry were identified via their characteristic pattern of green and red fluorescence. The translocation ratio was determined using median values of mCherry fluorescence within the nucleus and surrounding region using CellProfiler.
HeLa cells transfected for 24-36 hr with pGR-mCherry and either Rab5-GFP or Rab5Q79L-GFP were plated (10^4/well in […]) the day prior to experiments in 96 well glass bottom plates (Matrical). The cells were washed with HKR buffer and the nuclei labeled using Hoescht as above. […] The cells were incubated for a further 30 min at 37° C. before imaging. Cells that had been cotransfected with EGFP fusions were identified via their characteristic pattern of green and red fluorescence. To evaluate the extent of GR activation, epifluorescence images were obtained as described above, except the fluorescence of pGR-mCherry was also visualized using Zeiss Filter Set #43 (ex BP 545/25 nm, FT 570, em BP 605/70 nm).
The image analysis algorithm used by CellProfiler is customizable and contained within a ‘Pipeline’ that describes a series of image manipulation and evaluation steps, such as reading the image, adjusting the intensity, and identifying objects. Each step has several options. […] Using the image of Hoescht fluorescence and Otsu's method of automatic thresholding, nuclei were identified and segmented using 3 class thresholding. The middle class was assigned to background. Closely approximated objects were separated using ‘Laplacian of Gaussian’ modeling, and touching nuclei were divided using the ‘shape’ option. Nuclear regions were expanded by 2 μm to generate an enlarged region. The nuclear region was subtracted from enlarged region to generate a ring surrounding the nucleus (surround). The diameter of the surrounding region was chosen to be 2 μm larger than the nucleus, within the range (1-3 μm) used by previously reported high content screens (Ding et al., 1998, J Biol Chem. 273:28897-28905; Peeraniet al., 2007, EMBO J. 26:4744-4755). The ratio of the median intensities of the nuclear and surrounding region of the GFP or mCherry (as appropriate) image were collected for every cell examined. Those cells falling below a threshold of intensity (10% of the maximum intensity of the image) were discarded as ‘untransfected’. Typically, 20-60 transfected cells from 15-30 images were examined for each experimental condition.

U2OS(GIGI) cells = test: GIGI in lysates, stably transfected U2OS(GIGI) cells; assay type: cell-based
Excerpt: RFUs are expressed±standard deviation (Excel). The maximum induction level is defined as RFUmax. Data were processed using Kaleidagraph and GraphPad Prism software. RFU=([I530]/[I580])−([I′530]/[I′580]) (1)
Y=Ymin+(Ymax−Ymin)/(1+10^logEC50-X) (2)

Saos-2(GIGT) cells = test: GIGT high-content imaging in stably transfected Saos-2(GIGT) cells; assay type: cell-based, human
Experimental: Saos2(GIGT) cells were plated onto 384-well plates (2,500 cells/well) in 40 μL of full McCoy's 5A and allowed to adhere overnight. […] Following treatment, cells were fixed with 4% paraformaldehyde for 20 min at room temperature and washed with PBS. […] Translocation ratios were determined using Acapella high content imaging and analysis software, with a script that processed the images in a manner similar to the CellProfiler pipeline described in the Supporting Information. Each data point represents 30-60 images containing over 100 cells.

HeLa cells [3] = test: Colocalization with Alexa-488-transferrin (Tf488), live cell confocal microscopy; assay type: cell-based; conditions: 1 μM, 30 min
Experimental: To examine the colocalization of rhodamine labeled miniature proteins or peptides with Alexa-488-transferrin (Tf488), HeLa cells were plated (200 μl, 10^4 cells/well, 96 well glass bottom plates, Matrical) the day prior to experiments. The media was replaced with 150 μL Hepes-Krebs-Ringer's (HKR) buffer (140 mM NaCl, 2 mM KCl, 1 mM CaCl2, 1 mM MgCl2, 10 mM Hepes pH 7.4) containing 1 μM miniature protein or 25 nM Alexa-488-transferrin (Molecular Probes) and the cells incubated at 37° C. for 30 min. The cells were then rinsed twice with 200 μL, HKR buffer and nuclei were labeled by overlaying 200 μL HKR containing 300 nM Hoechst 33342 (Molecular Probes Cat. # H3570) for 5 minutes. Images of cells were acquired using a PerkinElmer LiveView spinning disk confocal microscope fitted with a 60×1.2 NA objective. Colocalization with Rab-GFP fusions was examined in an analogous way using HeLa cells transfected with the appropriate expression plasmid.
Colocalization between rhodamine and fluorescein labeled miniature proteins and peptides, or between rhodamine labeled miniature proteins and markers of endocytosis was completed using confocal microscopy. Live cell confocal microscopy was conducted using a PerkinElmer LiveView spinning disk confocal microscope fitted with heated microscope enclosure (maintained at 37° C.), a 60×1.2 NA objective, laser illumination, a Nipkow CSU-1× spinning disk, and a Hammamatsu CS9100 EMCCD camera operated using Velocity software. Alexafluor-488-transferrin was detected using a 488 nm laser and a 520 nm long pass filter; tetraethylrhodamine and Alexafluor-546-transferrin were detected using a 546 nm laser line and a 580 nm long pass filter, Hoescht 33342 was detected using a 405 nm laser line and a 450 nm long pass filter. Images were processed for presentation by using the ‘subtract background’ option and linear contrast adjustments in Image J. All adjustments were applied uniformly to the entire image. Colocalization analysis was performed using the JACOP plugin (Bolte and Cordelières, 2006), available on the ImageJ website. The fraction of rhodamine signal overlapping with EGFP signal (R E G) was calculated using Mander's coefficient and automatic thresholding. Pearson's correlation coefficient (R) was also obtained using the JACOP plugin.

HeLa cells [4] = test: Effects of endocytosis inhibitors on cell uptake, confocal microscopy; assay type: cell-based; conditions: 1 μM rhodamine labeled, 30 min, 37° C.
Experimental: HeLa cells grown for 24 h in glass bottom plates were incubated with HKR buffer, or HKR buffer containing 80 μM dynasore, 50 μM N-ethyl-isopropyl-amiloride, or 5 mM methyl-β-cyclodextrin for 30 min at 37° C. prior to the addition of 1 μM rhodamine-labeled miniature protein or peptide (Tat (SEQ ID NO:67) and Arg8 (SEQ ID NO:68)). The cells were washed twice with DMEM, the nuclei labeled with Hoescht, and images acquired as described above for colocalization experiments.

HeLa cells [5] = test: HPLC analysis of cytosolic extracts prepared with streptolysin O; assay type: cell-based; conditions: HeLa cells treated with rhodamine labeled molecule
Experimental: To generate cytosolic extracts, HeLa cells were treated with streptolysin O (SLO), a well characterized bacterial toxin that creates pores in the plasma membranes of target cells (Walev et al., 2002, FASEB 16:237-239). […] Moreover, when the toxin is added to cultured cells at 4° C. and washed with PBS before raising the temperature to 37° C., pores are created only in the plasma membrane and the release of ER, golgi, or endolysosomal contents are avoided (Androlewicz et al., 1993, Proc Natl Acad Sci USA 90:9130-9134).
First, selective release of the cytoplasmic contents of HeLa cells using the published procedures was verified. HeLa cells were treated with 20 μg/mL SLO in PBS containing 5 mM DTT (20 min, 4° C.), washed (three PBS washes, 150 μL each), resuspended in PBS, and incubated at 37° C. for 15 min, after which 1.5 μM propidium iodide (PI), a marker of permeabilized cell membranes, was added.

cathepsin B = cathepsin B (Homo sapiens, UniProt P07858); test: Resistance to acid proteases: cathepsin B; assay type: in vitro ADME; conditions: 50 pmol, 30 min, 37° C., pH 5
Experimental: 50 pmol aPPR, 5.2R, 5.3R, ZF5.3R, TatR (SEQ ID NO:67), or Arg8R (SEQ ID NO:68) were incubated with 5 pg cathepsin B, D, or L for 30 min at 37° C. in 10 μL of 20 mM sodium phosphate buffer (pH 5) containing 150 mM NaCl. At the end of the incubation, the reaction was stopped by adding 40 μL of a solution containing a 84:15:1 ratio of water:EtOH:TFA before analysis by HPLC.

| Substance | effect of bafilomycin on TR [1] | translocation ratio (TR) ([1]; 1 μM) | effect of EIPA on TR [1] | effect of dynasore on TR [1] | effect of methyl-β-cyclodextrin (MβCD) on TR [1] | effect of Rab5Q79L on ability to reach the cytoplasm / TR [2] | material found in SLO cytoplasmic extracts (HPLC) (HeLa cells [5]) | degradation by cathepsin B (HPLC) (cathepsin B) | further results |
| --- | --- | --- | --- | --- | --- | --- | --- | --- | --- |
| K^DexGRKKRRQRRRPPQY-NH2 (K(dexamethasone)GRKKRRQRRRPPQY-NH2) [TatDex] | completely blocked the increase in TR | 2.85±0.10 | reduced, to background levels | reduced, to background levels | reduced, to background levels | blocked the ability |  |  | increase in TR blocked by wortmannin ([1]; 200 nM wortmannin, 1 μM): 72%; TR (GR-mCherry), Rab5Q79L-GFP expressing cells ([2]; 1 μM, 30 min, Rab5Q79L-GFP): 1.26±0.03; TR (GR-mCherry), Rab5-GFP expressing cells ([2]; 1 μM, 30 min, wild-type Rab5-GFP): 1.57±0.04; eGFP expression (U2OS(GIGI) cells; 1 μM, lysates): significant eGFP expression; translocation ratio (TR), GR★-GFP (Saos-2(GIGT) cells; 1 μM, 30 min, Saos-2(GIGT) cells): 2.28±0.24 |
| K^RhodRRRRRRRR-NH2 (K(Rhod)RRRRRRRR-NH2; reading uncertain; also: printed as K^RhodRRRRRRRR-NH2) [Arg8R] |  |  |  |  |  |  | retention times distinct from the starting material; also recorded: little or no material with the same retention time as the starting material | little or no degradation | intracellular red fluorescent signal (HeLa cells [3]): red fluorescent puncta throughout the cytosol; effect of EIPA on uptake (HeLa cells [4]; 50 μM EIPA): dramatically reduced the uptake; effect of dynasore on uptake (HeLa cells [4]; 80 μM dynasore): completely blocked the uptake; effect of MβCD on uptake (HeLa cells [4]; 5 mM MβCD): increased |
| K^RhodWYSCNVCGKAFVLSRHLNRHLRVHRRAT-NH2 (K(Rhod)WYSCNVCGKAFVLSRHLNRHLRVHRRAT-NH2; cysteine pairing not given here; reading uncertain; also: printed as KRhodWYSCNVCGKAFVLSRHLNRHLRVHRRAT-NH2) [ZF5.3R] |  |  |  |  |  | unaffected | can be recovered from cytosolic extracts; also recorded: a single peak with the same retention time as the starting material | little or no degradation | effect of wortmannin on TR ([1]; wortmannin treatment): unaffected |
| K^DexWYSCNVCGKAFVLSRHLNRHLRVHRRAT-NH2 (K(dexamethasone)WYSCNVCGKAFVLSRHLNRHLRVHRRAT-NH2; cysteine pairing not given here) [ZF5.3Dex] | reduced to background levels | 2.4±0.09 | reduced to background levels | reduced to background levels | reduced to background levels |  |  |  | EC50 fold lower than that of ZFN1-4Dex (U2OS(GIGI) cells): 70-80 fold; EC50 fold lower than that of wtZFDex (U2OS(GIGI) cells): 100 fold; EC50 (U2OS(GIGI) cells; Dex-labeled peptides, 24 h, lysates, read-out: EC50 (eGFP expression, GIGI)): 1.4 nM; GR★-GFP translocation (GIGT) compared with wtZF and all four ZFN domains (Saos-2(GIGT) cells; GIGT): significantly higher levels; cells expressing GR★-GFP with significant translocation ratios (Saos-2(GIGT) cells; GIGT): greater than 99% |
